Measurements from the NIST ThermoML archive (doi:10.1021/je049655w).
Values joined by “and” are separate entries in the source; they are usually repeats but may differ in a detail not shown here. Equal entries are not always repeated.

Experiments:
[1] = 100.8 kPa, Liquid
[2] = refractive index (Na D-line) (dimensionless); conditions: 298.15 K; 101.33 kPa; Liquid; Standard Abbe refractometry
[3] = xn = mol fraction of the nth substance listed; conditions: 100.8 kPa, Liquid

CC(C)CC(C)(C)C [2,2,4-trimethylpentane]
[1]
Conditions	mass density [kg/m3]	viscosity
298.15 K	687.8	0.474 mPa·s
308.15 K	679.5	0.422 mPa·s and 0.426 mPa·s
318.15 K	671	0.382 mPa·s

Conditions	refractive index
[2]	1.38902

CC(C)CC(C)(C)C [2,2,4-trimethylpentane] + CCC(C)=O
[3], x2 = 0
Conditions	mass density [kg/m3]	viscosity [mPa·s]
298.15 K	687.8	0.474
308.15 K	679.5	0.426
318.15 K	671	0.382

CC(C)CC(C)(C)C [2,2,4-trimethylpentane] + CCO
[3]
Conditions	mass density, 298.15 K [kg/m3]	mass density, 308.15 K [kg/m3]	mass density, 318.15 K [kg/m3]	viscosity, 298.15 K [mPa·s]	viscosity, 308.15 K [mPa·s]	viscosity, 318.15 K [mPa·s]
x2 = 0	687.8	679.5	671	0.474	0.422	0.382
x2 = 0.05	688.8	680.4	671.7	0.476	0.424	0.384
x2 = 0.1	690.3	681.8	673	0.478	0.426	0.385
x2 = 0.15	692.1	683.5	674.7	0.48	0.429	0.389
x2 = 0.2	694	685.4	676.5	0.484	0.433	0.391
x2 = 0.25	696.2	687.5	678.6	0.494	0.439	0.397
x2 = 0.3	698.5	689.8	680.9	0.507	0.45	0.404
x2 = 0.35	701.1	692.4	683.4	0.521	0.462	0.412
x2 = 0.4	704	695.2	686.2	0.54	0.474	0.422
x2 = 0.45	707.1	698.3	689.3	0.561	0.487	0.433
x2 = 0.5	710.6	701.8	692.8	0.586	0.506	0.446
x2 = 0.55	714.5	705.7	696.6	0.613	0.527	0.463
x2 = 0.6	718.8	710	700.9	0.643	0.55	0.48
x2 = 0.65	723.6	714.9	705.8	0.678	0.576	0.5
x2 = 0.7	729.1	720.3	711.3	0.718	0.606	0.524
x2 = 0.75	735.4	726.6	717.6	0.76	0.641	0.55
x2 = 0.8	742.3	733.6	724.7	0.806	0.677	0.58
x2 = 0.85	750.5	741.7	732.9	0.861	0.72	0.616
x2 = 0.9	760.1	751.4	742.5	0.929	0.768	0.657
x2 = 0.95	771.5	762.8	753.9	0.999	0.829	0.702

CCC(C)=O [butanone]
[1]
Conditions	mass density [kg/m3]	viscosity [mPa·s]
298.15 K	799.7	0.378
308.15 K	789.2	0.341
318.15 K	778.4	0.307

Conditions	refractive index
[2]	1.37623

CCC(C)=O [butanone] + CC(C)CC(C)(C)C
[3]
Conditions	mass density, 298.15 K [kg/m3]	mass density, 308.15 K [kg/m3]	mass density, 318.15 K [kg/m3]	viscosity, 298.15 K [mPa·s]	viscosity, 308.15 K [mPa·s]	viscosity, 318.15 K [mPa·s]
x1 = 0.05	690.1	681.7	673.1	0.461	0.416	0.374
x1 = 0.1	692.7	684.2	675.4	0.451	0.408	0.367
x1 = 0.15	695.6	687	678.2	0.443	0.4	0.36
x1 = 0.2	698.7	690.1	681.1	0.436	0.394	0.354
x1 = 0.25	702.2	693.4	684.3	0.429	0.388	0.349
x1 = 0.3	705.9	697	687.8	0.423	0.382	0.344
x1 = 0.35	709.9	700.9	691.6	0.417	0.377	0.339
x1 = 0.4	714.1	705.1	695.7	0.412	0.372	0.335
x1 = 0.45	718.7	709.5	700.1	0.407	0.368	0.331
x1 = 0.5	723.6	714.3	704.8	0.402	0.363	0.328
x1 = 0.55	728.8	719.4	709.8	0.398	0.36	0.325
x1 = 0.6	734.5	724.9	715.3	0.394	0.356	0.322
x1 = 0.65	740.6	731	721.2	0.39	0.353	0.32
x1 = 0.7	747.2	737.4	727.5	0.387	0.35	0.317
x1 = 0.75	754.2	744.3	734.3	0.384	0.347	0.315
x1 = 0.8	761.9	751.9	741.7	0.381	0.345	0.313
x1 = 0.85	770.4	760.2	749.9	0.379	0.343	0.311
x1 = 0.9	779.3	769	758.6	0.377	0.342	0.309
x1 = 0.95	789.2	778.8	768.2	0.377	0.341	0.308
x1 = 1	799.7	789.2	778.4	0.378	0.341	0.307

CCC(C)=O [butanone] + CCO
[3]
Conditions	mass density, 298.15 K [kg/m3]	mass density, 308.15 K [kg/m3]	mass density, 318.15 K [kg/m3]	viscosity, 298.15 K [mPa·s]	viscosity, 308.15 K [mPa·s]	viscosity, 318.15 K [mPa·s]
x2 = 0	799.7	789.2	778.4	0.378	0.341	0.307
x2 = 0.05	799.3	788.8	778	0.38	0.345	0.313
x2 = 0.1	798.9	788.3	777.6	0.386	0.349	0.316
x2 = 0.15	798.4	787.9	777.2	0.393	0.353	0.32
x2 = 0.2	797.9	787.4	776.8	0.4	0.359	0.324
x2 = 0.25	797.4	787	776.4	0.409	0.366	0.33
x2 = 0.3	796.9	786.5	776	0.42	0.376	0.337
x2 = 0.35	796.4	786.1	775.6	0.431	0.387	0.345
x2 = 0.4	795.8	785.6	775.2	0.446	0.397	0.355
x2 = 0.45	795.2	785.1	774.7	0.469	0.412	0.365
x2 = 0.5	794.6	784.6	774.3	0.49	0.426	0.381
x2 = 0.55	794	784	773.8	0.512	0.443	0.398
x2 = 0.6	793.3	783.4	773.3	0.539	0.467	0.412
x2 = 0.65	792.6	782.8	772.8	0.576	0.493	0.434
x2 = 0.7	791.8	782.1	772.2	0.618	0.526	0.456
x2 = 0.75	790.9	781.4	771.6	0.673	0.56	0.482
x2 = 0.8	790	780.6	771	0.734	0.601	0.519
x2 = 0.85	788.9	779.7	770.3	0.799	0.654	0.56
x2 = 0.9	787.8	778.7	769.5	0.869	0.722	0.613
x2 = 0.95	786.6	777.7	768.6	0.961	0.803	0.676

CCO [ethanol]
[1]
Conditions	mass density [kg/m3]	viscosity [mPa·s]
298.15 K	785.1	1.088
308.15 K	776.5	0.904
318.15 K	767.7	0.763

Conditions	refractive index
[2]	1.35949

CCO [ethanol] + CC(C)CC(C)(C)C
[3], x1 = 1
Conditions	mass density [kg/m3]	viscosity [mPa·s]
298.15 K	785.1	1.088
308.15 K	776.5	0.904
318.15 K	767.7	0.763

CCO [ethanol] + CCC(C)=O
[3], x1 = 1
Conditions	mass density [kg/m3]	viscosity [mPa·s]
298.15 K	785.1	1.088
308.15 K	776.5	0.904
318.15 K	767.7	0.763
